From the NIST ThermoML archive (doi:10.1021/je049612f)

Conditions: Gas, Vibrating wire viscometry

FS(F)(F)(F)(F)F [sulfur hexafluoride]
Conditions	viscosity [mPa·s]
300 K, 26.36 kPa	0.01529
300 K, 50.94 kPa	0.01531
300 K, 73.62 kPa	0.01532
300 K, 105.89 kPa	0.01532
300 K, 125.7 kPa	0.01533
300 K, 152.62 kPa	0.01533
300 K, 177.62 kPa	0.01533
300 K, 195.25 kPa	0.01534
300 K, 227.52 kPa	0.01534
300 K, 251.51 kPa	0.01535
300 K, 278.58 kPa	0.01535
300 K, 301.45 kPa	0.01535
300 K, 327.3 kPa	0.01536
300 K, 353.41 kPa	0.01536
300 K, 378.55 kPa	0.01537
300 K, 401.57 kPa	0.01537
300 K, 425.72 kPa	0.01538
300 K, 444.52 kPa	0.01538
300 K, 471.71 kPa	0.01539
300 K, 491.53 kPa	0.0154
300 K, 538.31 kPa	0.01541
300 K, 565.24 kPa	0.01542
300 K, 597.98 kPa	0.01543
300 K, 634.58 kPa	0.01544
300 K, 665.1 kPa	0.01545
300 K, 700.96 kPa	0.01546
300 K, 731.45 kPa	0.01547
300 K, 763.98 kPa	0.01548
300 K, 800.2 kPa	0.01549
300 K, 835.89 kPa	0.01551
300 K, 869.95 kPa	0.01553
300 K, 898.41 kPa	0.01554
300 K, 930.75 kPa	0.01556
300 K, 968.74 kPa	0.01558
300 K, 997.76 kPa	0.01559
300 K, 1036.4 kPa	0.01561
300 K, 1090.2 kPa	0.01565
300 K, 1140.1 kPa	0.01568
300 K, 1181.5 kPa	0.0157
300 K, 1223.6 kPa	0.01574
300 K, 1280.6 kPa	0.01578
300 K, 1333.3 kPa	0.01582
300 K, 1380.9 kPa	0.01586
300 K, 1417.9 kPa	0.01589
300 K, 1493.3 kPa	0.01596
300 K, 1537.7 kPa	0.016
300 K, 1594.6 kPa	0.01606
300 K, 1637.3 kPa	0.01611
300 K, 1680.6 kPa	0.01616
300 K, 1735.3 kPa	0.01622
300 K, 1784.4 kPa	0.01629
300 K, 1826.5 kPa	0.01635
300 K, 1865.1 kPa	0.01641
300 K, 1927.3 kPa	0.0165
300 K, 1980 kPa	0.01659
300 K, 2039.3 kPa	0.0167
316 K, 112.75 kPa	0.01605
316 K, 143.54 kPa	0.01605
316 K, 174.6 kPa	0.01606
316 K, 197.59 kPa	0.01606
316 K, 218.05 kPa	0.01607
316 K, 245.03 kPa	0.01607
316 K, 262.84 kPa	0.01607
316 K, 287.46 kPa	0.01608
316 K, 307.35 kPa	0.01608
316 K, 332.06 kPa	0.01609
316 K, 357.7 kPa	0.0161
316 K, 383.76 kPa	0.0161
316 K, 402.43 kPa	0.01611
316 K, 428.01 kPa	0.01611
316 K, 468.39 kPa	0.01613
316 K, 490.91 kPa	0.01613
316 K, 519.48 kPa	0.01614
316 K, 548.34 kPa	0.01615
316 K, 585.01 kPa	0.01616
316 K, 614.48 kPa	0.01617
316 K, 650.85 kPa	0.01618
316 K, 685.07 kPa	0.0162
316 K, 712.63 kPa	0.0162
316 K, 749.05 kPa	0.01622
316 K, 780.4 kPa	0.01623
316 K, 810.74 kPa	0.01624
316 K, 843.2 kPa	0.01626
316 K, 882.81 kPa	0.01628
316 K, 913.9 kPa	0.01629
316 K, 955.92 kPa	0.01631
316 K, 994.72 kPa	0.01634
316 K, 1031.1 kPa	0.01635
316 K, 1084.1 kPa	0.01638
316 K, 1120.4 kPa	0.01641
316 K, 1178.3 kPa	0.01644
316 K, 1215.2 kPa	0.01646
316 K, 1257.3 kPa	0.0165
316 K, 1314.3 kPa	0.01654
316 K, 1374.4 kPa	0.01658
316 K, 1422.9 kPa	0.01662
316 K, 1465.6 kPa	0.01665
316 K, 1530.4 kPa	0.01671
316 K, 1572.7 kPa	0.01674
316 K, 1609.8 kPa	0.01678
316 K, 1667.2 kPa	0.01684
316 K, 1724.2 kPa	0.01689
316 K, 1772.5 kPa	0.01694
316 K, 1821.1 kPa	0.017
316 K, 1860.3 kPa	0.01704
316 K, 1922.7 kPa	0.01711
316 K, 1988.5 kPa	0.0172
316 K, 2021.6 kPa	0.01725
316 K, 2087.4 kPa	0.01733
316 K, 2155.2 kPa	0.01744
316 K, 2223.8 kPa	0.01755
316 K, 2273.2 kPa	0.01763
316 K, 2319.1 kPa	0.01771
316 K, 2375.8 kPa	0.01781
316 K, 2448.5 kPa	0.01796
316 K, 2510 kPa	0.01809
316 K, 2587.2 kPa	0.01826
316 K, 2658.2 kPa	0.01844
316 K, 2724.3 kPa	0.01862
316 K, 2792.7 kPa	0.01883
316 K, 2860.9 kPa	0.01906
316 K, 2916.5 kPa	0.01925
316 K, 2981.1 kPa	0.0195
316 K, 3007.9 kPa	0.01963
316 K, 3070 kPa	0.01992
316 K, 3135.2 kPa	0.02025
321 K, 77.46 kPa	0.01627
321 K, 97.02 kPa	0.01627
321 K, 114.16 kPa	0.01627
321 K, 146.57 kPa	0.01628
321 K, 169.96 kPa	0.01629
321 K, 205.62 kPa	0.01629
321 K, 239.58 kPa	0.0163
321 K, 264.1 kPa	0.0163
321 K, 293.39 kPa	0.01631
321 K, 339.65 kPa	0.01632
321 K, 374.89 kPa	0.01633
321 K, 400.93 kPa	0.01634
321 K, 428.98 kPa	0.01634
321 K, 457.31 kPa	0.01635
321 K, 488.99 kPa	0.01636
321 K, 523.86 kPa	0.01637
321 K, 563.16 kPa	0.01638
321 K, 592.18 kPa	0.01639
321 K, 633.22 kPa	0.01641
321 K, 681.18 kPa	0.01643
321 K, 732.46 kPa	0.01644
321 K, 790.88 kPa	0.01647
321 K, 823.55 kPa	0.01648
321 K, 857.52 kPa	0.0165
321 K, 896.2 kPa	0.01652
321 K, 934.23 kPa	0.01654
321 K, 969 kPa	0.01655
321 K, 1031.4 kPa	0.01658
321 K, 1089.4 kPa	0.01662
321 K, 1125 kPa	0.01664
321 K, 1178.7 kPa	0.01667
321 K, 1223.2 kPa	0.0167
321 K, 1282.4 kPa	0.01674
321 K, 1340 kPa	0.01678
321 K, 1386.2 kPa	0.01682
321 K, 1431.8 kPa	0.01686
321 K, 1483.3 kPa	0.01689
321 K, 1538.9 kPa	0.01694
321 K, 1647 kPa	0.01703
321 K, 1693.1 kPa	0.01708
321 K, 1744.5 kPa	0.01713
321 K, 1788.6 kPa	0.01718
321 K, 1847.4 kPa	0.01724
